Results on 11 compounds are retold here after patent US20100222332A1, “PYRAZOLO-PYRAZINES DERIVATIVES USED AS G PROTEIN INHIBITORS” (Ipsen Pharma S.A.S., priority 2007, published 2010).

Assay type in all cases: cell-based
Test [1] deals with LNCaP (human prostate cancer cells). As to the kind of experiment: Anti-proliferative activity on LNCaP cell line (WST1 colorimetric test). The conditions noted are these: treated for 96 hours, read-out: IC50 on the cell proliferation of the LNCaP lines. On the procedure:
(§1) By way of example, the effect of a treatment on three human cell lines DU145, LNCaP and A2058 with the compounds of the examples described previously will be studied. The cell lines DU145 and LNCaP (human prostate cancer cells) and A2058 (human melanoma cancer cells) were acquired from the American Tissue Culture Collection (Rockville, Md., USA). The cells placed in 80 μl of Dulbecco's Modified Eagle medium (Gibco-Brl, Cergy-Pontoise, France) completed with 10% foetal calf serum inactivated by heating (Gibco-Brl, Cergy-Pontoise, France), 50000 units/l of penicillin and 50 mg/l streptomycin (Gibco-Brl, Cergy-Pontoise, France), and 2 mM of glutamin (Gibco-Brl, Cergy-Pontoise, France) were seeded on a 96-well plate on day 0. The cells were treated on day 1 for 96 hours with increasing concentrations of each of the compounds to be tested up to 10 μM. At the end of this period, the quantification of the cell proliferation is evaluated by a colorimetric test based on the cleavage of the tetrazolium salt WST1 by mitochondrial dehydrogenases in the viable cells leading to the formation of formazan (Boehringer Mannheim, Meylan, France). These tests are carried out in duplicate with 8 determinations per tested concentration. For each compound to be tested, the values included in the linear part of the sigmoid were retained for linear regression analysis and used in order to estimate the inhibitory concentration IC50. The products are solubilized in dimethylsulphoxide (DMSO) at 10^−2 M and finally used in culture with 0.1% DMSO.
(Tetrazolium dyes change colour on reduction, which living cells bring about.)

Test [2] deals with DU145 (human prostate cancer cells). Kind of test: Anti-proliferative activity on DU145 cell line (WST1 colorimetric test). The conditions noted are these: DU-145, treated for 96 hours, read-out: IC50 on the cell proliferation of the DU145 lines. The method, then: as §1
Test [3] relates to A2058 (human melanoma cancer cells). As to the kind of experiment: Anti-proliferative activity on A2058 cell line (WST1 colorimetric test). As to conditions: treated for 96 hours, read-out: IC50 on the cell proliferation of the A2058 lines. On the procedure:
as §1

Molecules are shown by their SMILES. Where a name gives a salt, the structure may show the parent alone. Read-outs that look alike come from different tables or passages of the source. A value given as a limit tells only on which side of the number the result lay.

Consider `N[C@@H](CSSC[C@H](N)C(=O)N1CCn2nc(-c3ccccc3)cc2C1CC1CCCCC1)C(=O)N1CCn2nc(-c3ccccc3)cc2C1CC1CCCCC1` (mixture of isomers) [Example 12, (2R)-3-({(2R)-2-amino-3-[(4RS)-4-(cyclohexylmethyl)-2-phenyl-6,7-dihydropyrazolo[1,5-a]pyrazin-5(4H)-yl]-3-oxopropyl}dithio)-1-[(4RS)-4-(cyclohexylmethyl)-2-phenyl-6,7-dihydropyrazolo[1,5-a]pyrazin-5(4H)-yl]-1-oxopropan-2-amine hydrochloride], for which the IC50 in test [1] was no more than 1 µM; in test [2], no more than 10 µM; in test [3] (bound given in mM) it was no more than 0.01 mM.

As for `CCCCC1c2cc(-c3ccccc3)nn2CCN1C(=O)[C@@H](N)CSSC[C@H](N)C(=O)N1CCn2nc(-c3ccccc3)cc2C1CCCC` (mixture of isomers) [Example 21, (2R)-3-({(2R)-2-amino-3-[(4RS)-4-butyl-2-phenyl-6,7-dihydropyrazolo[1,5-a]pyrazin-5(4H)-yl]-3-oxopropyl}dithio)-1-[(4RS)-4-butyl-2-phenyl-6,7-dihydropyrazolo[1,5-a]pyrazin-5(4H)-yl]-1-oxopropan-2-amine hydrochloride], the IC50 is no more than 5 µM in test [1], no more than 20 µM in test [2] and no more than 0.01 mM in test [3] (bound given in mM).

Consider `N[C@@H](CSSC[C@H](N)C(=O)N1CCn2nc(-c3ccccc3)cc2[C@@H]1CC1CCCCC1)C(=O)N1CCn2nc(-c3ccccc3)cc2[C@@H]1CC1CCCCC1` [Example 24, (2R)-3-({(2R)-2-amino-3-[(4S)-4-(cyclohexylmethyl)-2-phenyl-6,7-dihydropyrazolo[1,5-a]pyrazin-5(4H)-yl]-3-oxopropyl}dithio)-1-[(4S)-4-(cyclohexylmethyl)-2-phenyl-6,7-dihydropyrazolo[1,5-a]pyrazin-5(4H)-yl]-1-oxopropan-2-amine hydrochloride], for which the IC50 in test [1] is no more than 1 µM; in test [2] (unit inferred), no more than 15 µM; in test [3] (bound given in mM), no more than 0.01 mM.

Turning to `N[C@@H](CSSC[C@H](N)C(=O)N1CCn2nc(-c3cccs3)cc2C1CCc1ccccc1)C(=O)N1CCn2nc(-c3cccs3)cc2C1CCc1ccccc1` (mixture of isomers) [Example 18, (2R)-3-({(2R)-2-amino-3-oxo-3-[(4RS)-4-(2-phenylethyl)-2-(2-thienyl)-6,7-dihydropyrazolo[1,5-a]pyrazin-5(4H)-yl]propyl}dithio)-1-oxo-1-[(4RS)-4-(2-phenylethyl)-2-(2-thienyl)-6,7-dihydropyrazolo[1,5-a]pyrazin-5(4H)-yl]propan-2-amine hydrochloride], the IC50 is no more than 5 µM in test [1], no more than 15 µM in test [2] (unit inferred) and no more than 0.02 mM in test [3].

`N[C@@H](CSSC[C@H](N)C(=O)N1CCn2nc(-c3ccc(Cl)cc3Cl)cc2C1CCc1ccccc1)C(=O)N1CCn2nc(-c3ccc(Cl)cc3Cl)cc2C1CCc1ccccc1` (mixture of isomers) [Example 22, (2R)-3-({(2R)-2-amino-3-[(4RS)-2-(2,4-dichlorophenyl)-4-(2-phenylethyl)-6,7-dihydropyrazolo[1,5-a]pyrazin-5(4H)-yl]-3-oxopropyl}dithio)-1-[(4RS)-2-(2,4-dichlorophenyl)-4-(2-phenylethyl)-6,7-dihydropyrazolo[1,5-a]pyrazin-5(4H)-yl]-1-oxopropan-2-amine hydrochloride]: the IC50 is no more than 1 µM in test [1], no more than 20 µM in test [2] and no more than 0.01 mM in test [3] (bound given in mM).

Take `N[C@@H](CSSC[C@H](N)C(=O)N1CCn2nc(-c3ccco3)cc2C1CCc1ccccc1)C(=O)N1CCn2nc(-c3ccco3)cc2C1CCc1ccccc1` (mixture of isomers) [Example 19, (2R)-3-({(2R)-2-amino-3-[(4RS)-2-(2-furyl)-4-(2-phenylethyl)-6,7-dihydropyrazolo[1,5-a]pyrazin-5(4H)-yl]-3-oxopropyl}dithio)-1-[(4RS)-2-(2-furyl)-4-(2-phenylethyl)-6,7-dihydropyrazolo[1,5-a]pyrazin-5(4H)-yl]-1-oxopropan-2-amine hydrochloride]: the IC50 in test [1] was no more than 5 µM; in test [2] (unit inferred), no more than 15 µM; in test [3], no more than 0.02 mM.

On to `CCCCCC1c2cc(-c3ccccc3)nn2CCN1C(=O)[C@@H](N)CSSC[C@H](N)C(=O)N1CCn2nc(-c3ccccc3)cc2C1CCCCC` (mixture of isomers) [Example 20, (2R)-3-({(2R)-2-amino-3-oxo-3-[(4RS)-4-pentyl-2-phenyl-6,7-dihydropyrazolo[1,5-a]pyrazin-5(4H)-yl]propyl}dithio)-1-oxo-1-[(4RS)-4-pentyl-2-phenyl-6,7-dihydropyrazolo[1,5-a]pyrazin-5(4H)-yl]propan-2-amine hydrochloride], for which the IC50 was no more than 10 µM in test [1], no more than 15 µM in test [2] (unit inferred) and no more than 0.01 mM in test [3] (bound given in mM).

For `COc1cc(-c2cc3n(n2)CCN(C(=O)[C@@H](N)CSSC[C@H](N)C(=O)N2CCn4nc(-c5cc(OC)c(OC)c(OC)c5)cc4C2CCc2ccccc2)C3CCc2ccccc2)cc(OC)c1OC` (mixture of isomers) [Example 17, (2R)-3-({(2R)-2-amino-3-oxo-3-[(4RS)-4-(2-phenylethyl)-2-(3,4,5-trimethoxyphenyl)-6,7-dihydropyrazolo[1,5-a]pyrazin-5(4H)-yl]propyl}dithio)-1-oxo-1-[(4RS)-4-(2-phenylethyl)-2-(3,4,5-trimethoxyphenyl)-6,7-dihydropyrazolo[1,5-a]pyrazin-5(4H)-yl]propan-2-amine hydrochloride], the IC50 in test [1] was no more than 10 µM; in test [2] (unit inferred), no more than 15 µM; in test [3], no more than 0.02 mM.

Consider `N[C@@H](CSSC[C@H](N)C(=O)N1CCn2nc(-c3ccc4c(c3)OCO4)cc2C1CCc1ccccc1)C(=O)N1CCn2nc(-c3ccc4c(c3)OCO4)cc2C1CCc1ccccc1` (mixture of isomers) [Example 16, (2R)-3-({(2R)-2-amino-3-[(4RS)-2-(1,3-benzodioxol-5-yl)-4-(2-phenylethyl)-6,7-dihydropyrazolo[1,5-a]pyrazin-5(4H)-yl]-3-oxopropyl}dithio)-1-[(4RS)-2-(1,3-benzodioxol-5-yl)-4-(2-phenylethyl)-6,7-dihydropyrazolo[1,5-a]pyrazin-5(4H)-yl]-1-oxopropan-2-amine hydrochloride], for which the IC50 in test [1] is no more than 10 µM; in test [2], no more than 20 µM; in test [3] it was no more than 0.03 mM.

`N[C@@H](CSSC[C@H](N)C(=O)N1CCn2nc(-c3ccccc3)cc2C1CCc1ccccc1)C(=O)N1CCn2nc(-c3ccccc3)cc2C1CCc1ccccc1` (mixture of isomers) [Example 13, (2R)-3-({(2R)-2-amino-3-oxo-3-[(4RS)-2-phenyl-4-(2-phenylethyl)-6,7-dihydropyrazolo[1,5-a]pyrazin-5(4H)-yl]propyl}dithio)-1-oxo-1-[(4RS)-2-phenyl-4-(2-phenylethyl)-6,7-dihydropyrazolo[1,5-a]pyrazin-5(4H)-yl]propan-2-amine hydrochloride]: the results for the IC50 in test [1], in test [2] (unit inferred) and in test [3] (bound given in mM) were no more than 1 µM, no more than 15 µM and no more than 0.01 mM, respectively.

For `N[C@@H](CSSC[C@H](N)C(=O)N1CCn2nc(-c3cccnc3)cc2C1CCc1ccccc1)C(=O)N1CCn2nc(-c3cccnc3)cc2C1CCc1ccccc1` (mixture of isomers) [Example 15, (2R)-3-({(2R)-2-amino-3-oxo-3-[(4RS)-4-(2-phenylethyl)-2-pyridin-3-yl-6,7-dihydropyrazolo[1,5-a]pyrazin-5(4H)-yl]propyl}dithio)-1-oxo-1-[(4RS)-4-(2-phenylethyl)-2-pyridin-3-yl-6,7-dihydropyrazolo[1,5-a]pyrazin-5(4H)-yl]propan-2-amine hydrochloride], the results for the IC50 in test [1] and in test [3] were no more than 10 µM and no more than 0.02 mM, respectively.
